Assay [1] deals with T1, human kappa opioid receptor (hKOR) (Homo sapiens, UniProt P41145).
T1 construct: expressed in transfected cells; host or cells: HEK-293 cells, transient transfection with Fugene6
Nature of the assay: cell-based. Particulars: for Emax: HEK293, read-out: hKOR Efficacy(%).

The target of assay [2] is T2, mouse kappa opioid receptor (mKOR) (Mus musculus, UniProt P33534).
T2 construct: Stimulation of Endogenous Mouse Kappa-Opioid Receptor in R1.G1 Cells; host or cells: R1.G1 mouse thymoma cells
T2 sequence (P33534 whole entry): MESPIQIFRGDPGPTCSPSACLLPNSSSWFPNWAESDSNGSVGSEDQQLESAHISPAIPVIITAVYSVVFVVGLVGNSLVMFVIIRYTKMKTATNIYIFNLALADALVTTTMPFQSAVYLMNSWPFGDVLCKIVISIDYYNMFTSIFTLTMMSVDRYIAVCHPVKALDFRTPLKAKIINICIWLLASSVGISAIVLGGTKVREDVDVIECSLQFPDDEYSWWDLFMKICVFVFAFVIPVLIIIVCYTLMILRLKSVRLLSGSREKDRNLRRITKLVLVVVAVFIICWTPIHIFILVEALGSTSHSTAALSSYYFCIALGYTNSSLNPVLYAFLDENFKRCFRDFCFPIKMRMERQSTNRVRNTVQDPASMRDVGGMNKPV
As to the kind of experiment: cell-based. Particulars: for Emax: read-out: mKOR Efficacy(%).

Square brackets hold non-standard residues; d marks the D form. Peptide text beside a SMILES is read from it. * marks the point of attachment. Piperidinyl(4-(1-Pro-OH)) = O=C(O)[C@@H]1CCCN1C1CCN(*)CC1; Piperidin1yl(4-NH2,4-COOH) = NC1(C(=O)O)CCN(*)CC1; Homopiperazine(4-amidino) = N=C(N)N1CCCN(*)CC1; d(hArg) = N=C(N)NCCCC[C@@H](N)C(=O)O; dAgb = N=C(N)NCC[C@@H](N)C(=O)O; Homopiperazinyl = C1CNCCN(*)C1; dAgp = N=C(N)NC[C@@H](N)C(=O)O; dNle = CCCC[C@@H](N)C(=O)O; dDab = NCC[C@@H](N)C(=O)O; Morpholide = C1CN(*)CCO1; Inp = O=C(O)C1CCNCC1 Bounds are passed on as bounds.

T1 sequence (P41145 whole entry): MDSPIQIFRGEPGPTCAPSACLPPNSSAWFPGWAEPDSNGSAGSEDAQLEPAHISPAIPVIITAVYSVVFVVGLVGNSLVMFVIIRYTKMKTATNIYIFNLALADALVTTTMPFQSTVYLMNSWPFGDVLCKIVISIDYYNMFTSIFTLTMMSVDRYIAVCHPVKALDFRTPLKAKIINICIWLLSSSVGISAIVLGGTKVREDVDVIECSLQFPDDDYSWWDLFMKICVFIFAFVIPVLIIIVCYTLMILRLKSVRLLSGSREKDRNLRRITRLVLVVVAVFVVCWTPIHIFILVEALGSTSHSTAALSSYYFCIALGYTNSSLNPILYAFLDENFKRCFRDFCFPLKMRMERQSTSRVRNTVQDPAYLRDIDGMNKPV

With `CC(C)C[C@@H](NC(=O)[C@@H](Cc1ccccc1)NC(=O)[C@H](N)Cc1ccccc1)C(=O)N[C@H](CCNC(=N)N)C(=O)N1CCC(N)(C(=O)O)CC1` [Compound (11), D-Phe-D-Phe-D-Leu-D-Nar-[ω(4-aminopiperidine-4-carboxylic acid)]-OH] (H-[dF][dF][dL][dAgb]-{Piperidin1yl(4-NH2,4-COOH)}), in assay [1], the midpoint of the response, the EC50, lay at 0.15 nM and the Emax was found to be 82%. Moreover, in assay [2], the EC50 was 0.052 nM and the Emax turned out to be 92%.
In assay [1], `CC(C)C[C@@H](NC(=O)[C@@H](Cc1ccccc1)NC(=O)[C@H](N)Cc1ccccc1)C(=O)N[C@H](CCN)C(=O)N1CCC(N2CCC[C@H]2C(=O)O)CC1` [Compound (12), D-Phe-D-Phe-D-Leu-D-Dbu-[N-(4-piperidinyl)-L-proline]-OH] (H-[dF][dF][dL][dDab]-{Piperidinyl(4-(1-Pro-OH))}) returned an EC50 of 0.17 nM. Moreover, in assay [2], the EC50 was determined as 0.055 nM and the Emax came to 89%.
In the case of `CC(C)C[C@@H](NC(=O)[C@@H](Cc1ccccc1)NC(=O)[C@H](N)Cc1ccccc1)C(=O)N[C@H](CCNC(=N)N)C(=O)N1CCC(N2CCC[C@H]2C(=O)O)CC1` [Compound (13), D-Phe-D-Phe-D-Leu-D-Nar-[N-(4-piperidinyl)-L-proline]-OH] (H-[dF][dF][dL][dAgb]-{Piperidinyl(4-(1-Pro-OH))}), in assay [1], the EC50 is 0.13 nM and the Emax was 90%. Also, in assay [2], the EC50 stood at 0.032 nM and the Emax stood at 88%.
The matching figures for `CC(C)C[C@@H](NC(=O)[C@@H](Cc1ccccc1)NC(=O)[C@H](N)Cc1ccccc1)C(=O)N[C@H](CNC(=N)N)C(=O)N1CCC(N2CCC[C@H]2C(=O)O)CC1` [Compound (14), D-Phe-D-Phe-D-Leu-D-Dap(amidino)-[N-(4-piperidinyl)-L-proline]-OH] (H-[dF][dF][dL][dAgp]-{Piperidinyl(4-(1-Pro-OH))}): 0.21 nM, 81%, 0.349 nM and 86%.
Turning to `CC(C)C[C@@H](NC(=O)[C@@H](Cc1ccccc1)NC(=O)[C@H](N)Cc1ccccc1)C(=O)N[C@H](CCCCN)C(=O)N1CCCN(C(=N)N)CC1` [Compound (15), D-Phe-D-Phe-D-Leu-D-Lys-[4-amidinohomopiperazine amide]], in assay [1], the EC50 amounted to 0.11 nM and the Emax was determined as 92%. In assay [2], the 50% effective concentration (EC50) came out at 0.028 nM and the Emax was 92%.
Consider `CC(C)C[C@@H](NC(=O)[C@@H](Cc1ccccc1)NC(=O)[C@H](N)Cc1ccccc1)C(=O)N[C@H](CCCCNC(=N)N)C(=O)N1CCCN(C(=N)N)CC1` [Compound (16), D-Phe-D-Phe-D-Leu-D-Har-[4-amidinohomopiperazine amide]] (H-[dF][dF][dL][d(hArg)]-{Homopiperazine(4-amidino)}), for which the EC50 in assay [1] turned out to be 0.11 nM; in assay [2], 0.021 nM. For the same molecule, the results for the Emax in assay [1] and in assay [2] were 96% and 105%, respectively.
The matching figures for `CC(C)C[C@@H](NC(=O)[C@@H](Cc1ccccc1)NC(=O)[C@H](N)Cc1ccccc1)C(=O)N[C@H](CCCCNC(C)C)C(=O)N1CCCN(C(=N)N)CC1` [Compound (17), D-Phe-D-Phe-D-Leu-(ε-iPr)D-Lys-[4-Amidinohomopiperazine amide]]: 0.1 nM, 0.039 nM, 102% and 103%.
`CC(C)C[C@@H](NC(=O)[C@@H](Cc1ccccc1)NC(=O)[C@H](N)Cc1ccccc1)C(=O)N[C@H](CNC(=N)N)C(=O)N1CCCN(C(=N)N)CC1` [Compound (18), D-Phe-D-Phe-D-Leu-(β-amidino)D-Dap-[4-amidinohomopiperazine amide]] (H-[dF][dF][dL][dAgp]-{Homopiperazine(4-amidino)}): in assay [1], the EC50 worked out at 1.15 nM and the Emax turned out to be 93%. For the same molecule, in assay [2], the midpoint of the response, the EC50, lay at 1.02 nM and the Emax was determined as 103%.
For `CC(C)C[C@@H](NC(=O)[C@@H](Cc1ccccc1)NC(=O)[C@H](N)Cc1ccccc1)C(=O)N[C@H](CNC(=N)N)C(=O)N1CCCNCC1` [Compound (20), D-Phe-D-Phe-D-Leu-(β-amidino)D-Dap-[homopiperazine amide]] (H-[dF][dF][dL][dAgp]-Homopiperazinyl), in that order: 0.39 nM, 84%, 0.491 nM and 102%.
For `CCCC[C@@H](NC(=O)[C@@H](Cc1ccccc1)NC(=O)[C@H](N)Cc1ccccc1)C(=O)N[C@H](CNC(=N)N)C(=O)N1CCCNCC1` [Compound (21), D-Phe-D-Phe-D-Nle-(β-amidino)D-Dap-[homopiperazine amide]] (H-[dF][dF][dNle][dAgp]-Homopiperazinyl), in that order: 1.06 nM, 99%, 0.732 nM and 103%.
For `CC(C)C[C@@H](NC(=O)[C@@H](Cc1ccccc1)NC(=O)[C@H](N)Cc1ccccc1)C(=O)N[C@H](CCN)C(=O)N1CCCN(C(=N)N)CC1` [Compound (22), D-Phe-D-Phe-D-Leu-D-Dbu-[4-amidinohomopiperazine amide]] (H-[dF][dF][dL][dDab]-{Homopiperazine(4-amidino)}), in that order: 0.18 nM, 86%, 0.095 nM and 103%.
Regarding `CC(C)C[C@@H](NC(=O)[C@@H](Cc1ccccc1)NC(=O)[C@H](N)Cc1ccccc1)C(=O)N[C@H](CCNC(=N)N)C(=O)N1CCCN(C(=N)N)CC1` [Compound (23), D-Phe-D-Phe-D-Leu-D-Nar-[4-amidinohomopiperazine amide]] (H-[dF][dF][dL][dAgb]-{Homopiperazine(4-amidino)}), in assay [1], the response was half-maximal at 0.17 nM (EC50) and the Emax is 84%. Also, in assay [2], it took 0.091 nM to reach a half-maximal effect (EC50) and the Emax was 104%.
The matching figures for `CC(C)C[C@@H](NC(=O)[C@@H](Cc1ccccc1)NC(=O)[C@H](N)Cc1ccccc1)C(=O)N[C@H](CCCNC(=N)N)C(=O)N1CCCN(C(=N)N)CC1` [Compound (24), D-Phe-D-Phe-D-Leu-D-Arg-[4-amidinohomopiperazine amide]] (H-[dF][dF][dL][dR]-{Homopiperazine(4-amidino)}): 0.09 nM, 93%, 0.036 nM and 97%.
In the case of `CC(C)C[C@@H](NC(=O)[C@@H](Cc1ccccc1)NC(=O)[C@H](N)Cc1ccccc1)C(=O)N[C@H](CCCCN)C(=O)N1CCC2(CCNC2=O)CC1` [Compound (25), D-Phe-D-Phe-D-Leu-D-Lys-[2,8-diazaspiro[4,5]decan-1-one amide]], in assay [1], the half-maximal effective concentration (EC50) turned out to be 0.0027 nM and the Emax stood at 101%. Moreover, in assay [2], the EC50 stood at 0.0314 nM and the Emax was 82%.
The matching figures for `CC(C)C[C@@H](NC(=O)[C@@H](Cc1ccccc1)NC(=O)[C@H](N)Cc1ccccc1)C(=O)N[C@H](CCCCN)C(=O)N1CCC2(CCN(C)C2=O)CC1` [Compound (26), D-Phe-D-Phe-D-Leu-D-Lys-[2-methyl-2,8-diazaspiro[4,5]decan-1-one amide]]: 0.0083 nM, 99%, 0.0194 nM and 86%.
The matching figures for `CC(C)C[C@@H](NC(=O)[C@@H](Cc1ccccc1)NC(=O)[C@H](N)Cc1ccccc1)C(=O)N[C@H](CCCCN)C(=O)N1CCC2(CC1)NC(=O)NC2=O` [Compound (27), D-Phe-D-Phe-D-Leu-D-Lys-[1,3,8-triazaspiro[4,5]decane-2,4-dione amide]]: less than 0.001 nM, 88%, 0.0056 nM and 87%.
With `CC(C)C[C@@H](NC(=O)[C@@H](Cc1ccccc1)NC(=O)[C@H](N)Cc1ccccc1)C(=O)N[C@H](CCCCN)C(=O)N1CCC(n2c(=O)[nH]c3cc(Cl)ccc32)CC1` [Compound (28), D-Phe-D-Phe-D-Leu-D-Lys-[5-chloro-1-(piperidin-4-yl)-1H-benzo[d]imidazol-2(3)H-one amide]], the Emax was 100% in assay [1] and 83% in assay [2].
In the case of `CC(C)C[C@@H](NC(=O)[C@@H](Cc1ccccc1)NC(=O)[C@H](N)Cc1ccccc1)C(=O)N[C@H](CCCCN)C(=O)N1CCC(C(=O)N2CCOCC2)CC1` [Compound (29), D-Phe-D-Phe-D-Leu-D-Lys-[morpholino(piperidin-4-yl)methanone amide]] (H-[dF][dF][dL][dK][Inp]-Morpholide), the EC50 in assay [1] worked out at 0.0145 nM; in assay [2], 0.0464 nM. Further, the Emax in assay [1] is 100%; in assay [2], 86%.
Turning to `CC(C)C[C@@H](NC(=O)[C@@H](Cc1ccccc1)NC(=O)[C@H](N)Cc1ccccc1)C(=O)N[C@H](CCCCN)C(=O)N1CCC(n2cc(-c3ccccc3)[nH]c2=O)CC1` [Compound (30)], the Emax was determined as 95% in assay [1] and 88% in assay [2]. Also, the EC50 in assay [2] is 0.129 nM.
Regarding `Cc1nnc(C)n1C1CCN(C(=O)[C@@H](CCCCN)NC(=O)[C@@H](CC(C)C)NC(=O)[C@@H](Cc2ccccc2)NC(=O)[C@H](N)Cc2ccccc2)CC1` [Compound (31), D-Phe-D-Phe-D-Leu-D-Lys-[4-(3,5-dimethyl-4H-1,2,4-triazol-4-yl)piperidine amide]], in assay [1], the EC50 was found to be 0.0042 nM and the Emax turned out to be 95%. In addition, in assay [2], the EC50 came out at 0.0216 nM and the Emax was found to be 86%.
As to `CC(C)C[C@@H](NC(=O)[C@@H](Cc1ccccc1)NC(=O)[C@H](N)Cc1ccccc1)C(=O)N[C@H](CCCCN)C(=O)N1CCC2(CC1)C(=O)NCN2c1ccccc1` [Compound (33), D-Phe-D-Phe-D-Leu-D-Lys-[1-phenyl-1,3,8-triazaspiro[4.5]decan-4-one amide]], the Emax came to 101% in assay [1] and 86% in assay [2].

For orientation: EC50 means the concentration needed to bring the measured effect to its halfway point. Low values mean an effect from little substance, high ones a need for much substance.

These data come from patent US7713937B2, “Synthetic peptide amides and dimeric forms thereof” (Cara Therapeutics, Inc., priority 2006, dated 2010).
